Test results as given in patent US9434733B2, “PDE9 inhibitors with imidazo triazinone backbone” (H. Lundbeck A/S, priority 2012, dated 2016).

Molecular target: PDE9 (Homo sapiens (Human), UniProt O76083)
Test: PDE9 inhibition assay
Format: biochemical
Conditions: 10 nM 3H-cAMP, 1 hour incubation, yttrium silicate SPA beads; read-out: PDE9_IC50
Experimental: Reactions are initiated by addition of the cyclic nucleotide substrate, and reactions are allowed to proceed for one hr at room temperature before being terminated through mixing with 15 uL 8 mg/mL yttrium silicate SPA beads (Amersham).
Following a 1 hour incubation the reactions were terminated by addition of 15 uL 8 mg/mL yttrium silicate SPA beads (Amersham). […] IC50 values were calculated by non linear regression using XLfit (IDBS).

Sequence of PDE9 (O76083 whole entry): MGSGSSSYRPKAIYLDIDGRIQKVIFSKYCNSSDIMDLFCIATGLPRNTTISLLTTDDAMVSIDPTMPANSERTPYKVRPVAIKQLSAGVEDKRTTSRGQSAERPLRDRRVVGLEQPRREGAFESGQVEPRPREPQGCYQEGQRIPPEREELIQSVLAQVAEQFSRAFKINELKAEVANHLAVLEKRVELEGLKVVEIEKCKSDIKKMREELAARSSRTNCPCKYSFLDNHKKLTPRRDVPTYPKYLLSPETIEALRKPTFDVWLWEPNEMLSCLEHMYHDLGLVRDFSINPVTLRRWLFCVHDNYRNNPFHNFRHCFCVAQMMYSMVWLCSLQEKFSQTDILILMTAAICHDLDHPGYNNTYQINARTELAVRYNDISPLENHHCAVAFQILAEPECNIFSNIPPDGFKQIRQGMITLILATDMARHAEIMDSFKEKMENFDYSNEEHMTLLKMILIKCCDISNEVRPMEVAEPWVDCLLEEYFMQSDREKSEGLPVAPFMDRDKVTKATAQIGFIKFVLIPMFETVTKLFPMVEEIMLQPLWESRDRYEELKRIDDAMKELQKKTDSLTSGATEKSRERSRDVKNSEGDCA

- IC50: 350 nM
Structure (SMILES): O=c1[nH]c(CN2CC(Oc3cccnc3)C2)nn2c(C3CCOCC3)ncc12 [2-[[3-(3-pyridyloxy)azetidin-1-yl]methyl]-7-tetrahydropyran-4-yl-3H-imidazo[5,1-f][1,2,4]triazin-4-one]
